Several values for one entry are separate records, joined by “and”; a condition that tells them apart may be missing. Equal values may be shown once. Read-outs that look alike come from different tables or passages of the source.
Columns and labels:
[1] = Oral pharmacokinetic study in rats (plasma, UPHILIC-MS/MS, non-compartmental analysis); type: in vivo, wistar albino rats; conditions: for Kel: in h-1 (unit assumed); for AUClast / AUCtot: in ng·h/mL; for thalf: in h (unit assumed)
Experimental: Six healthy rats weighing between 180–220 g were received and maintained under standard laboratory conditions before the experiments. […] Blood samples (approx.0.5 ml) were collected at 0, 0.33, 0.66, 1, 2, 3, 5, 8, 12 and 24 h in lithium heparinized tubes after dosing. Plasma was separated by centrifugation for 8 min at 4000 rpm and stored at −80 °C till further analysis.
The non-compartmental model was used to calculate the pharmacokinetic parameters using WinNonlin software (Pharsight Co., Mountain View, CA, USA). The maximum plasma concentration (Cmax), time to achieve this (Tmax), area under curve zero to last and infinity (AUC0-24; AUC0-∞), half-life (T½), elimination rate constant (Kel) and mean residence time were measured. Statistical parameters like mean, standard deviation and % RSD were calculated by using MS-Excel 2013 (Microsoft).

[2] = Stability in spiked rat plasma under different storage conditions; type: physicochemical; conditions: for stability in spiked rat plasma, short term and long term storage: LQC and HQC, room temperature and -80 °C for 30 days, acceptance within ±15%; for stability of processed plasma samples in autosampler and after freeze-thaw cycles: autosampler for 24 h, three freeze-thaw cycles; for Processed samples (24 h) Accuracy (%): processed rat plasma samples, autosampler at 10 °C; for long term (1 month) Accuracy (%) / Short term (8 h) Accuracy (%) / Freeze/Thaw (3 cycle) Accuracy (%): spiked rat plasma; for long term (1 month) Accuracy (%): -80 °C for 30 days; for Short term (8 h) Accuracy (%): room temperature; for Freeze/Thaw (3 cycle) Accuracy (%): three cycle from -80 °C to room temperature
Experimental: The short-term (at room temperature for 8 h); post preparation (in autosampler at 10 °C for 24 h), freeze-thaw (three cycle from ─80 °C to room temperature) and long-term (─80 °C for 30 days) stabilities were determined. All stabilities results were measured against freshly spiked CCs and acceptance were limited to be within ±15%.

SUA levels = conditions: ALP dose of 300 mg/day; ref [10]–[12]; cited from earlier work
[3] = Mean of six rats (supplement), oral ALP 20 mg/kg and LES 15 mg/kg
[4] = Wistar albino, rat, plasma, po, 20 mg/kg, Mean line of six rats (supplement), oral ALP 20 mg/kg and LES 15 mg/kg, read-out: Tmax
[5] = Wistar albino, rat, plasma, po, 20 mg/kg, Mean of six rats (supplement), oral ALP 20 mg/kg and LES 15 mg/kg
[6] = Wistar albino, rat, plasma, po, 20 mg/kg, Mean of six rats (supplement), oral ALP 20 mg/kg and LES 15 mg/kg, read-out: AUClast
[7] = Wistar albino, rat, plasma, po, 20 mg/kg, Mean of six rats (supplement), oral ALP 20 mg/kg and LES 15 mg/kg, read-out: Cmax
[8] = Wistar albino, rat, plasma, po, 20 mg/kg, Mean of six rats (supplement), oral ALP 20 mg/kg and LES 15 mg/kg, read-out: MRT
[9] = Wistar albino, rat, plasma, po, 20 mg/kg, individual animal (rats R1-R6), oral ALP 20 mg/kg and LES 15 mg/kg
[10] = Wistar albino, rat, plasma, po, 20 mg/kg, individual animal (rats R1-R6), oral ALP 20 mg/kg and LES 15 mg/kg, read-out: AUClast
[11] = Wistar albino, rat, plasma, po, 20 mg/kg, individual animal (rats R1-R6), oral ALP 20 mg/kg and LES 15 mg/kg, read-out: Cmax
[12] = Wistar albino, rat, plasma, po, 20 mg/kg, individual animal (rats R1-R6), oral ALP 20 mg/kg and LES 15 mg/kg, read-out: MRT
[13] = Wistar albino, rat, plasma, po, 20 mg/kg, rats, oral ALP 20 mg/kg, read-out: Tmax
[14] = Wistar albino, rat, plasma, po, rat plasma, oral co-administration of ALP 20 mg/kg and LES 15 mg/kg, mean ± SD, six rats, read-out: Cmax
[15] = Wistar albino, rat, plasma, po, rat plasma, oral co-administration of ALP 20 mg/kg and LES 15 mg/kg, mean ± SD, read-out: AUC0-24
[16] = Wistar albino, rat, plasma, po, rat plasma, oral co-administration of ALP 20 mg/kg and LES 15 mg/kg, mean ± SD, read-out: MRT
[17] = Wistar albino, rat, plasma, po, rat plasma, oral co-administration of ALP 20 mg/kg and LES 15 mg/kg, six rats, read-out: Tmax
[18] = individual animal (rats R1-R6), oral ALP 20 mg/kg and LES 15 mg/kg, in h
[19] = individual animal (rats R1-R6), oral ALP 20 mg/kg and LES 15 mg/kg
[20] = individual animal (rats R1-R6), oral ALP 20 mg/kg and LES 15 mg/kg, in ng/mL
[21] = HQC nominal value (ALP 7000, OXP 10000, LES 8000 ng/mL)
[22] = LQC nominal value (ALP 70, OXP 100, LES 80 ng/mL)

Structure (SMILES)	Kel [1, 3]	Tmax [1, 4]	Cmax [1, 14]	AUC(0-t) [1, 15]	MRT [1, 16]	Tmax [1, 17]	MRT [1, 18]	Cmax [1, 20]	AUClast [1, 19]	AUCtot [1, 19]	stability in spiked rat plasma, short term and long term storage [2]	stability of processed plasma samples in autosampler and after freeze-thaw cycles [2]	Processed samples (24 h) Accuracy (%) [2, 21]	Processed samples (24 h) Accuracy (%) [2, 22]	long term (1 month) Accuracy (%) [2, 21]	Short term (8 h) Accuracy (%) [2, 21]	Freeze/Thaw (3 cycle) Accuracy (%) [2, 21]	long term (1 month) Accuracy (%) [2, 22]	Short term (8 h) Accuracy (%) [2, 22]	Freeze/Thaw (3 cycle) Accuracy (%) [2, 22]	other results
Oc1ncnc2[nH]ncc12 [ALP, Allopurinol]	0.5391	0.66 h	2.03 ± 0.509 µg/mL	3.51 ± 0.571 µg·h/mL	1.98 ± 0.32 h	0.66 h	1.607 and 2.233 and 2.477 and 1.777 and 1.801	1667.45 and 2378.66 and 2694.26 and 2321.62 and 1731.2	2635.21 and 3641.95 and 4404.97 and 3470.35 and 3598.67	2743.88 and 3774.36 and 4653.35 and 3656.48 and 3742.26	acceptable limits	stable	99.34%	96.54%	88.71%	90.84%	100.54%	87.23%	93.08%	108.60%	AUC [1, 5]: 3.66 µg·h/mL; AUC(0-t) [1, 6]: 3.51 µg·h/mL; Cmax [1, 7]: 2.03 µg/mL; MRT [1, 8]: 1.99 h; AUC [1, 9]: 3.39 µg·h/mL; AUC(0-t) [1, 10]: 3.32 µg·h/mL; Cmax [1, 11]: 1.38 µg/mL; MRT [1, 12]: 2.04 h; Tmax ([1]; Wistar albino, rat, plasma, po, 20 mg/kg, individual animal (rats R1-R6), oral ALP 20 mg/kg and LES 15 mg/kg, read-out: Tmax): 0.33 h; Tmax [1, 13]: 0.66 h; Kel [1, 19]: 0.3461; detectability in plasma after administration ([1]; rats, post administration of 20 mg/kg of ALP): undetectable after 8 h; patients who do not achieve sustained reductions in SUA levels (< 6 mg/dL) (SUA levels): > 50%
O=C(O)CSc1nnc(Br)n1-c1ccc(C2CC2)c2ccccc12 [LES, Lesinurad]	0.09441	–	8.27 ± 0.191 µg/mL	65.91 ± 0.139 µg·h/mL	12.4 ± 4.51 h	1.5 h	20.1145 and 8.709 and 12.6844 and 8.471 and 9.848 and 14.9899	5494.01 and 8320.88 and 6878.96 and 11031.4 and 8808.81 and 9091.69	64836.4 and 61847.4 and 85561.6 and 56410.3 and 78552.6	68738 and 73776.1 and 90181.7 and 60657.3 and 99665.6	acceptable limits	stable	97.01%	112.54%	88.59%	95.12%	90.13%	89.81%	91.26%	94.8%	thalf [1, 3]: 8.497; Tmax ([1]; Wistar albino, rat, plasma, po, 15 mg/kg, Mean line of six rats (supplement), oral ALP 20 mg/kg and LES 15 mg/kg, read-out: Tmax): 1.5 h; AUC ([1]; Wistar albino, rat, plasma, po, 15 mg/kg, Mean of six rats (supplement), oral ALP 20 mg/kg and LES 15 mg/kg): 77.1 µg·h/mL; AUC(0-t) ([1]; Wistar albino, rat, plasma, po, 15 mg/kg, Mean of six rats (supplement), oral ALP 20 mg/kg and LES 15 mg/kg, read-out: AUClast): 65.9 µg·h/mL; Cmax ([1]; Wistar albino, rat, plasma, po, 15 mg/kg, Mean of six rats (supplement), oral ALP 20 mg/kg and LES 15 mg/kg, read-out: Cmax): 8.27 µg/mL; MRT ([1]; Wistar albino, rat, plasma, po, 15 mg/kg, Mean of six rats (supplement), oral ALP 20 mg/kg and LES 15 mg/kg, read-out: MRT): 12.5 h; AUC ([1]; Wistar albino, rat, plasma, po, 15 mg/kg, individual animal (rats R1-R6), oral ALP 20 mg/kg and LES 15 mg/kg): 69.8 µg·h/mL; AUC(0-t) ([1]; Wistar albino, rat, plasma, po, 15 mg/kg, individual animal (rats R1-R6), oral ALP 20 mg/kg and LES 15 mg/kg, read-out: AUClast): 48.2 µg·h/mL; Tmax [1, 18]: 1 and 3 and 2 and 5 and 0.66; thalf [1, 19]: 13.589 and 5.574 and 9.1146 and 5.126 and 5.707 and 11.8685; Kel [1, 19]: 0.05101 and 0.1244 and 0.07605 and 0.1352 and 0.1214 and 0.0584; ratios of AUC (AUC0-24/ AUC0-∞) ([1]; rats, oral ALP 20 mg/kg and LES 15 mg/kg): ≥ 85%
O=c1[nH]c(=O)c2c[nH]nc2[nH]1 [OXP, oxypurinol]	0.1191	2 h	7.5 ± 0.156 µg/mL	44.8 ± 0.373 µg·h/mL	7.58 ± 1.52 h	2 h	6.956 and 5.837 and 6.059 and 8.731 and 9.5786	7192.39 and 10535.3 and 7573.56 and 6585.93 and 6831.19	49418.6 and 48647.7 and 44044.7 and 42639.7 and 44576.2	50759.5 and 50350.9 and 45393.1 and 45993.3 and 50026.1	acceptable limits	stable	102.65%	104.72%	91.04%	95.12%	92.67%	92.43%	96.85%	102.55%	AUC [1, 5]: 47.4 µg·h/mL; AUC(0-t) [1, 6]: 44.8 µg·h/mL; Cmax [1, 7]: 7.5 µg/mL; MRT [1, 8]: 7.58 h; AUC [1, 9]: 41.9 µg·h/mL; AUC(0-t) [1, 10]: 39.5 µg·h/mL; Cmax [1, 11]: 6.25 µg/mL; MRT [1, 12]: 8.33 h; Tmax [1, 13]: 2 h; Tmax [1, 18]: 3 and 0.66 and 1

— publication PMC6417734 (PLoS ONE, 2019)
